The text below walks through data of patent US6635641B2 (Agouron Pharmaceuticals, Inc., priority 2000, dated 2003).

In assay [1] the target is T1, unphosphorylated VEGF-R2Δ50 (FLVK) (Homo sapiens, UniProt P35968, DEL940-989/E990V).
T1 construct: VEGF-R2Δ50 contains residues 806-939 and 990-1171; made in house; host or cells: baculovirus/insect cells
As to the kind of experiment: VEGF-R2 coupled spectrophotometric assay, unphosphorylated construct (FLVK).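 Note: Baculovirus-expressed cytosolic kinase domain, ADP formation linked via pyruvate kinase and lactate dehydrogenase to NADH oxidation, read as falling absorbance at 340 nm.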 It counts as biochemical.
Procedure: A construct (VEGF-R2Δ50) of the cytosolic domain of human vascular endothelial growth factor receptor 2 (VEGF-R2) lacking the 50 central residues of the 68 residues of the kinase insert domain was expressed in a baculovirus/insect cell system. […] Autophosphorylation of the purified construct was performed by incubation of the enzyme at a concentration of 4 μM in the presence of 3 mM ATP and 40 mM MgCl2 in 100 mM Hepes, pH 7.5, containing 5% glycerol and 5 mM DTT, at 4° C. for 2 h.
The production of ADP from ATP that accompanies phosphoryl transfer was coupled to oxidation of NADH using phosphoenolpyruvate (PEP) and a system having pyruvate kinase (PK) and lactic dehydrogenase (LDH). The oxidation of NADH was monitored by following the decrease of absorbance at 340 nm (e340=6.22 cm^−1 mM^−1) using a Beckman DU 650 spectrophotometer. Assay conditions for phosphorylated VEGF-R2Δ50 (indicated as FLVK-P in the tables below) were the following: 1 mM PEP; 250 μM NADH; 50 units of LDH/mL; 20 units of PK/mL; 5 mM DTT; 5.1 mM poly(E4Y1); 1 mM ATP; and 25 mM MgCl2 in 200 mM Hepes, pH 7.5. Assay conditions for unphosphorylated VEGF-R2Δ50 (indicated as FLVK in the tables) were the following: 1 mM PEP; 250 μM NADH; 50 units of LDH/mL; 20 units of PK/mL; 5 mM DTT; 20 mM poly(E4Y1); 3 mM ATP; and 60 mM MgCl2 and 2 mM MnCl2 in 200 mM Hepes, pH 7.5. Assays were initiated with 5 to 40 nM of enzyme. Ki values were determined by measuring enzyme activity in the presence of varying concentrations of test compounds. The data were analyzed using Enzyme Kinetic and Kaleidagraph software.

The target in assay [2] is T2, FGF-R1 intracellular kinase domain (Homo sapiens, UniProt P11362, C488A/C584S/L457V).
T2 construct: starting from the endogenous methionine residue 456 to glutamate 766; made in house; host or cells: baculovirus expression system
As to the kind of experiment: FGF-R spectrophotometric assay.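 For all read-outs here: coupled PK/LDH enzyme assay: ADP from kinase phosphoryl transfer drives NADH oxidation, read as absorbance decrease at 340 nm, with 2 mM ATP and poly(E4Y1) substrate.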 Particulars: for Ki: read-out: FGF-P Ki. Type of assay: biochemical.
Source text: The intracellular kinase domain of human FGF-R1 was expressed using the baculovirus vector expression system starting from the endogenous methionine residue 456 to glutamate 766, according to the residue numbering system of Mohammadi et al., Mol. Cell.
The production of ADP from ATP that accompanies phosphoryl transfer was coupled to oxidation of NADH using phosphoenolpyruvate (PEP) and a system having pyruvate kinase (PK) and lactic dehydrogenase (LDH). The oxidation of NADH was monitored by following the decrease of absorbance at 340 nm (e340=6.22 cm^−1 mM^−1) using a Beckman DU 650 spectrophotometer. […] Assays were initiated with 5 to 40 nM of enzyme. Ki values were determined by measuring enzyme activity in the presence of varying concentrations of test compounds. The data were analyzed using Enzyme Kinetic and Kaleidagraph software.
The spectrophotometric assay was carried out as described above for VEGF-R2, except for the following changes in concentration: FGF-R=50 nM, ATP=2 mM, and poly(E4Y1)=15 mM.

The target in assay [3] is T3, phosphorylated VEGF-R2Δ50 (FLVK-P) (Homo sapiens, UniProt P35968, DEL940-989/E990V).
T3 construct: VEGF-R2Δ50 contains residues 806-939 and 990-1171; made in house; host or cells: baculovirus/insect cells
As to the kind of experiment: VEGF-R2 coupled spectrophotometric assay, phosphorylated construct (FLVK-P). Type of assay: biochemical. An outline of the steps:
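Baculovirus-expressed VEGF-R2Δ50 (residues 806-939/990-1171, E990V), optionally autophosphorylated; ADP formation coupled via PK/LDH to NADH oxidation at 340 nm, pH 7.5 Hepes. FLVK-P: 1 mM ATP, 5.1 mM poly(E4Y1), 25 mM MgCl2; FLVK: 3 mM ATP, 20 mM poly(E4Y1), 60 mM MgCl2, 2 mM MnCl2. Ki from activity over compound concentrations.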

Assay [4] relates to lung cancer cells (line MV522). As to the kind of experiment: Cancer cell proliferation (MV522) assay (MTT). It counts as cell-based. Particulars: MV522. Summed up:
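Proliferation was read by MTT reduction 72 h after compound addition, in a 4-day protocol with no starvation step. Two thousand MV522 cells were seeded in RPMI1640 with 10% FBS and 2 mM glutamine and given 1 day to attach before dosing.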

The next assay deals with CDK2/Cyclin A complex (Homo sapiens, UniProt P24941). As to the kind of experiment: CDK2/Cyclin A assay ([32P]ATP incorporation into Rb fragment). It counts as biochemical. Particulars: read-out: CDK2 percent inhibition. The procedure: CDK2 was purified using published methodology (Rosenblatt et al., J. Mol. Biol., 230, 1317-1319 (1993)) from insect cells that had been infected with a baculovirus expression vector. Cyclin A was purified from E. coli cells expressing full-length recombinant cyclin A, and a truncated cyclin A construct was generated by limited proteolysis and purified as described previously (Jeffrey et al., Nature, 376, 313-320 (1995)).
Cyclin-dependent kinase activity was measured by quantifying the enzyme-catalyzed, time-dependent incorporation of radioactive phosphate from [^32P]ATP into a recombinant fragment of the retinoblastoma protein. Unless noted otherwise, assays were performed in 96-well plates in a total volume of 50 μL, in the presence of 10 mM HEPES (N-[2-hydroxyethyl]piperazine-N′-[2-ethanesulfonic acid]) (pH 7.4), 10 mM MgCl2, 25 μM adenosine triphosphate (ATP), 1 mg/mL ovalbumin, 5 μg/mL leupeptin, 1 mM dithiothreitol, 10 mM β-glycerophosphate, 0.1 mM sodium vanadate, 1 mM sodium fluoride, 2.5 mM ethylene glycol-bis(β-aminoethyl ether)-N,N,N′N′-tetraacetic acid (EGTA), 2% (v/v) dimethylsulfoxide, and 0.03-0.2 μCi [^32P]ATP. The substrate (0.3-0.5 μg) was purified recombinant retinoblastoma protein fragment (Rb) (residues 386-928 of the native retinoblastoma protein; 62.3 kDa, containing the majority of the phosphorylation sites found in the native 106-kDa protein, as well as a tag of six histidine residues for ease of purification). Reactions were initiated with CDK2 (150 nM CDK2/Cyclin A complex) or CDK4 (50 nM CDK4/Cyclin D3 complex), incubated at 30° C., and terminated after 20 minutes by the addition of ethylenediaminetetraacetic acid (EDTA) to 250 mM. The phosphorylated substrate was then captured on a nitrocellulose membrane using a 96-well filtration manifold, and unincorporated radioactivity was removed by repeated washing with 0.85% phosphoric acid. Radioactivity was quantified by exposing the dried nitrocellulose membranes to a phosphorimager. Apparent Ki values were measured by assaying enzyme activity in the presence of different compound concentrations and subtracting the background radioactivity measured in the absence of enzyme. The kinetic parameters (kcat, Km for ATP) were measured for each enzyme under the usual assay conditions by determining the dependence of initial rates on ATP concentration. The data were fit to an equation for competitive inhibition using Kaleidagraph (Synergy Software), or were fit to an equation for competitive tight-binding inhibition using the software KineTic (BioKin, Ltd.). Measured Ki values for known inhibitors against CDK4 and CDK2 agreed with published IC50 values. […]

The next assay addresses T4, LCK tyrosine kinase (Homo sapiens, UniProt P06239, C224D/P223M).
T4 construct: starting from amino acid residue 223 to the end of the protein at residue 509; made in house; host or cells: insect cells
As to the kind of experiment: LCK spectrophotometric assay.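 For all read-outs here: recombinant LCK kinase activity on poly(E4Y1), ADP formation coupled through PK/LDH to NADH oxidation, followed as absorbance loss at 340 nm.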 Type of assay: biochemical. Particulars: for Ki: read-out: LCK-P Ki.

T2 sequence (P11362 456-766 L457V/C488A/C584S): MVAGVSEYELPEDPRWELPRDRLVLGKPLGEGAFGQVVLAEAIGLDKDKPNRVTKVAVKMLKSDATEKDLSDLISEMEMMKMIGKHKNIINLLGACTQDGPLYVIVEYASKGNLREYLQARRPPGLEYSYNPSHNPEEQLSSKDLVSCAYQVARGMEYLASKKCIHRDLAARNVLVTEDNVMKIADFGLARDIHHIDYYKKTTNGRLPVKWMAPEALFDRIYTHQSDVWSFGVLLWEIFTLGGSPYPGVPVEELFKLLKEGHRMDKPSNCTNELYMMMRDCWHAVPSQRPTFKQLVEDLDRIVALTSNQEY
T4 sequence (P06239 223-509 P223M/C224D): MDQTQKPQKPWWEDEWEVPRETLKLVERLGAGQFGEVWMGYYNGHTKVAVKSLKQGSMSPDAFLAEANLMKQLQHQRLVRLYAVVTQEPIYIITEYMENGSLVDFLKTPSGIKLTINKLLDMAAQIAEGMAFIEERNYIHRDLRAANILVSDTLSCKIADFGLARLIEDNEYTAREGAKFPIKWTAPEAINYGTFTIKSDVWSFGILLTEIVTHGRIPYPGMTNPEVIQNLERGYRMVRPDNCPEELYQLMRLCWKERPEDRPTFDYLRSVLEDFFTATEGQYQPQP
T3 sequence (P35968 with tags, fused parts or gaps DEL940-989/E990V limits assumed): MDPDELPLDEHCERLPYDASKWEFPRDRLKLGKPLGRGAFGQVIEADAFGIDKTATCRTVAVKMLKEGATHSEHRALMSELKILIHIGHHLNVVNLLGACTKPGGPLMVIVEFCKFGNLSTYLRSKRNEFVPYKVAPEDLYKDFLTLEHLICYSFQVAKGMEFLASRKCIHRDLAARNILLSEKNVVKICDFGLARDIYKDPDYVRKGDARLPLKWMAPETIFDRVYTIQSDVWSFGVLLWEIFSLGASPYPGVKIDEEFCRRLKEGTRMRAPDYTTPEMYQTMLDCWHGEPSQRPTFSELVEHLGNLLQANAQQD
T1 sequence (P35968 with tags, fused parts or gaps DEL940-989/E990V limits assumed): as above

In the case of `Cc1ccc2cc(NC(=O)c3cccc(SCc4cc(Nc5ccccc5)n[nH]4)c3)ccc2n1` [Example E-1, N-(2-methyl-quinolin-6-yl)-3-[{5-(phenylamino)-2-H-pyrazol-3-yl}methylsulfanyl]benzamide], the Ki (in general, a dissociation constant, usually derived from enzyme kinetics or from competition with a known ligand) in assay [1] was 1.4 nM; in assay [3], 2.21 nM. The inhibition (as a rule, the drop in the measured response relative to a control, in per cent) at 5 µM in assay [2] (at 5 μM, read-out: FGF-P percent inhibition) is 36%; at LCK tyrosine kinase (@ 5 μM, read-out: LCK-P percent inhibition), 85%. The half-maximal inhibitory concentration (IC50) – broadly, the concentration that gives 50% inhibition – in assay [4] was > 10000 nM. For the same compound, the inhibition at 100 µM on CDK2/Cyclin A complex (@ 100 μM) worked out at 23%.
`CC(=O)Nc1ccc(COc2cccc(C(=O)Nc3ccc4nc(C)ccc4c3)c2)cn1` [Example N-1, 3-(6-Acetylaminopyridin-3-yl)methoxy-N-(2-methyl-quinolin-6-yl)-benzamide]: the Ki in assay [1] stood at 1.3 nM; in assay [3], 3.74 nM; at LCK tyrosine kinase it was 160 nM. In addition, the inhibition at 1 µM came to 12% in assay [2] (@ 1 μM, read-out: FGF-P percent inhibition) and 18% at CDK2/Cyclin A complex. The IC50 in assay [4] is > 10000 nM.
With `O=C(Nc1ccc(N2CCCC2)c(C(F)(F)F)c1)c1cccc(CCc2cc(Nc3cccnc3)n[nH]2)c1` [Example G-11], the Ki in assay [1] is 0.11 nM; in assay [2] it was 19 nM; in assay [3] it was 0.17 nM; on LCK tyrosine kinase, 2.5 nM. Further, inhibition in assay [4] was half-maximal at 5600 nM (IC50).
Take `Cc1cc(NC(=O)c2ccc(F)c(OCc3cncc4ccccc34)c2)ccc1C(C)C` [Example K-10, N-(4-Isopropyl-3-methyl-phenyl)-4-fluoro-3-(Isoquinolin-4-yl)methoxy-benzamide]: the Ki turned out to be 0.23 nM in assay [1], 26 nM in assay [2], 2.19 nM in assay [3] and 57.7 nM on LCK tyrosine kinase. Further, it took 4600 nM to reach half-maximal inhibition in assay [4] (IC50). For the same compound, the inhibition at 1 µM on CDK2/Cyclin A complex was found to be 12%.
